From patent publication US20180098954A1, “AMELIORATING AGENT FOR EXERCISE-INDUCED GASTROINTESTINAL DISORDERS” (AJINOMOTO CO., INC., priority 2015, published 2018)

Tests used:
CD2F1 mice [1] = test: gastrointestinal tract permeability of FD4 (FITC-dextran) after 4 hr running in a hamster wheel; format: in vivo; conditions: male CD2F1 mice, FD4 500 mg/kg orally
Description: It is known that high molecular weight substances that are not usually absorbed from the gastrointestinal tract penetrate the intestine and enter the blood when the barrier function of the gastrointestinal tract is declined (FIG. 1). Therefore, the improving effect of cystine on exercise-induced decline in gastrointestinal tract barrier function was studied by the following test. […] According to the method described in Cani et al., Gut 2009, 58(8) : 1091-1103, which is incorporated herein by reference in its entirety, FD4 concentration that leaked into the blood from the gastrointestinal tract was calculated by measuring the fluorescence intensity in the blood, based on which the gastrointestinal tract permeability of FD4 was evaluated (see FIG. 2). To be specific, blood was collected from the mice under isoflurane anesthesia, the collected blood was centrifuged to give plasma, the obtained plasma was diluted 2-fold with phosphate buffer, and fluorescence intensity was measured under the conditions of excitation wavelength: 485 nm, detection wavelength: 535 nm (measurement device SPECTRA MAX GEMINI EM Molecular Devices Japan). […] After completion of running, the gastrointestinal tract permeability of FD4 was evaluated in the same manner as in Example 1.

CD2F1 mice [2] = test: feed intake after totally exhausting treadmill exercise for 3 consecutive days; format: in vivo; conditions: male CD2F1 mice; normal diet added with cystine (2%) in place of casein for 8 days; after totally exhausting exercise for 3 consecutive days; versus exercise group; P<0.05 (FIG. 5)
Description: Athletes are known to experience gastrointestinal upset and loss of appetite in scenes where intense training such as a camp training and the like are repeated. Therefore, the improving effect of cystine on exercise-induced decrease in appetite was studied by the following test. 6-Week-old male CD2F1 mice (Charles River Laboratories Japan, Inc.) were divided into 3 groups (non-exercise group, exercise group, and exercise+2% cystine group), and a normal diet (AIN-93G composition) was given to non-exercise group and exercise group, and a normal diet (AIN-93G composition) added with cystine (2%) in place of casein was given to exercise+2% cystine group, each for 8 days. Thereafter, exercise group and exercise+2% cystine group were made to run in a treadmill to total exhaustion for 3 consecutive days, and non-exercise group was not allowed to exercise (see FIG. 4). While exercise group and exercise+2% cystine group ran, non-exercise group was fasted and deprived of water. A new feed was given every day after completion of the totally exhausting exercise, recovered the next day and the amount of the remaining feed was measured, from which feed intake was calculated.

Compound: N[C@@H](CSSC[C@H](N)C(=O)O)C(=O)O [cystine]
- FD4 concentration in blood (gastrointestinal tract permeability), compared to Gln+Ex (CD2F1 mice [1]; cystine (2%) diet versus glutamine (2%) diet for 7 days, blood after 1 hr (FIG. 3)): lower FD4 concentration in blood as compared to the group (Gln+Ex)
- FD4 concentration in blood (gastrointestinal tract permeability), compared to Ex (CD2F1 mice [1]; normal diet added with cystine (2%) for 7 days, blood after 1 hr, versus exercise group on normal diet, P<0.05 (FIG. 3)): lower FD4 concentration in blood as compared to Ex
- relative feed intake after exercise (Pre run as 100%) (CD2F1 mice [2]): significantly high as compared to the exercise group
